Measurements from patent publication US9174933B2.

Experiment: Dynamic Vapor Sorption/Desorption (DVS)
Assay type: physicochemical
Details: 5% to 95% relative humidity at 10% RH intervals, nitrogen purge
Method: Moisture sorption/desorption data were collected on a VTI SGA-100 Vapor Sorption Analyzer. Sorption and desorption data were collected over a range of 5% to 95% relative humidity (RH) at 10% RH intervals under a nitrogen purge. Samples were not dried prior to analysis. Equilibrium criteria used for analysis were less than 0.0100% weight change in 5 minutes, with a maximum equilibration time of 3 hours if the weight criterion was not met. Data were not corrected for the initial moisture content of the samples. Sodium chloride and polyvinypyrrolidine were used as calibration standards.

weight change during moisture sorption/desorption: negligible weight change
SMILES: COc1cc(F)c(F)c(Nc2ccc(I)cc2F)c1NS(=O)(=O)C1(C[C@H](O)CO)CC1 [Form A]
